Assay results from patent US7381541B2, “Methods for producing animal feed preparations with astaxanthin-containing plants or parts of plants of the genus Tagetes” (SunGene GmbH & Co. KGaA, priority 2002, dated 2008).

System: trout
Assay: Oral administration to trout in a standard trout feed: examination of bioavailability, pigmenting and performance parameters
Type: in vivo
Conditions: 8 weeks
Experimental: The trout feed comprising the inventive astaxanthin pigments is produced in accordance with Example IV and administered orally to trout (mean live mass 180 g). 3 concentrations are tested: 10, 20 and 40 mg of astaxanthin from the inventive astaxanthin pigmenting per kg of diet.
The trout are raised as described hereinafter: • The trout are given as standard an adaptation phase of 14 days. • During the feeding experiment, 10 trout are kept per pool in constant-flow plastic tanks of volume 80 l of water. The water temperature is 15° C. The water is biologically purified and at least 10% of the total amount of water is replaced by fresh water per day. • The illumination period is 12 hours per day to avoid premature sexual maturation of the animals. • The number of pools per treatment is 3. This is equivalent to 30 trout per dose level. • The diets are stored at −20° C. to avoid astaxanthin losses. The feed is thawed by portions (weekly) and administered. • The experimental period is 8 weeks. […]
The average feed consumption per fish, feed conversion and live mass gain are statistically evaluated.
The pigmenting of the fish is measured by reflectance spectrophotometric measurements (Minolta a value =red value at the fillet incision) and by determining the astaxanthin content (mg/kg) in the fillet in each case compared with the negative control.

CC1=C(/C=C/C(C)=C/C=C/C(C)=C/C=C/C=C(C)/C=C/C=C(C)/C=C/C2=C(C)C(=O)[C@@H](O)CC2(C)C)C(C)(C)C[C@H](O)C1=O [synthetic astaxanthin, astaxanthin]
performance parameters (feed intake, feed utilization, live mass gain): differences between or within treatments: no statistically secured differences
